According to patent publication US20230212164A1, “ANNULATED 2-AMINO-3-CYANO THIOPHENES AND DERIVATIVES FOR THE TREATMENT OF CANCER” (BOEHRINGER INGELHEIM INTERNATIONAL GMBH, priority 2020, published 2023):

How the values were obtained:
[1] = target: T1, protein-protein interaction between SOS1 and KRAS G12C (Homo sapiens, UniProt P01116, C118S/C51S/C80L/G12C); assay: KRAS::SOS1 AlphaScreen binding assay
T1 construct: His6 (N)

[2] = target: KRASG12-dependent Ba/F3 cells (Homo sapiens, UniProt P01116, G12C, cells depend on it); assay: Ba/F3 cell model proliferation assay (AlamarBlue, 72 h); assay type: cell-based; details: Ba/F3 cells transduced with KRASG12C, read-out: IC50 Ba/F3 KRASG12C
Protocol: Ba/F3 Cell Model Generation and Proliferation Assay
Plasmids containing KRASG12 mutants were obtained from GeneScript. To generate KRASG12-dependent Ba/F3 models, Ba/F3 cells were transduced with retroviruses containing vectors that harbor KRASG12 isoforms. Platinum-E cells (Cell Biolabs) were used for retrovirus packaging. Retrovirus was added to Ba/F3 cells. To ensure infection, 4 μg/mL polybrene was added and cells were spinfected. […] Cells with an infection efficiency of 10% to 20% were further cultivated and puromycin selection with 1 μg/mL was initiated. As a control, parental Ba/F3 cells were used to show selection status. Selection was considered successful when parental Ba/F3 cells cultures died. To evaluate the transforming potential of KRASG12 mutations, the growth medium was no longer supplemented with IL-3. Ba/F3 cells harboring the empty vector were used as a control. Approximately ten days before conducting the experiments, puromycin was left out.
All treatments were performed in technical duplicates. The assay is run using a fully automated robotic system. Treated cells were incubated for 72 h at 37° C. with 5% CO2.
AlamarBlue™ (ThermoFisher), a viability stain, was added and fluorescence measured in the PerkinElmer Envision HTS Multilabel Reader.

[3] = tested on: pERK (Thr202/Tyr204) in NCI-H358_Cas9_SOS2 (SOS2 knocked); assay: ERK phosphorylation assay 2 (AlphaLISA SureFire Ultra p-ERK1/2); details: read-out: IC50 H358 pERK, ERK phosphorylation assay 2 (values marked with *)
Protocol: ERK Phosphorylation Assay
Low IC50 values in this assay setting are indicative of high potency of the compounds according to the invention.
GFP positive cells were collected and further expanded. These GFP-positive cell pools were single-cell diluted and SOS2 knock-out clones were identified via Western-blot and genomic DNA sequencing analysis.
Materials Used for the Assay:
AlphaLISA SureFire Ultra p-ERK1/2 (Thr202/Tyr204) Assay Kit (ALSU-PERK-A500)
Cells are seeded at 40,000 cells per well in /60 μL of RPMI with 10% FBS, non-essential amino acids, pyruvate and glutamax in Greiner TC 384 plates. The cells are incubated for 1 h at room temperature and then incubated overnight in an incubator at 37° C. and 5% CO2 in a humidified atmosphere. 60 nL compound solution (10 mM DMSO stock solution) is then added using a Labcyte Echo 550 device. After a 1 h incubation in the aforementioned incubator the medium is removed after centrifugation and the cells lysed by addition of 20 μL of 1.6-fold lysis buffer from the AlphaLISA SureFire Ultra pERK1/2 (Thr202/Tyr204) Assay Kit with added protease inhibitors, 100 nM trametinib+100 nM staurosporine. After 20 minutes of incubation at room temperature with shaking, 6 μL of each lysate sample is transferred to a 384-well Proxiplate and analyzed for pERK (Thr202/Tyr204) with the AlphaLISA SureFire Ultra pERK1/2 (Thr202/Tyr204) Assay Kit. 3 μL Acceptor Mix and 3 μL Donor Mix are added under subdued light and incubated for 2 h at room temperature in the dark, before the signal is measured on a PerkinElmer Envision HTS Multilabel Reader. The raw data were imported into and analyzed with the Boehringer Ingelheim proprietary software MegaLab (curve fitting based on the program PRISM, GraphPad Inc.).

NCI-H358 cells = assay: NCI-H358 CTG proliferation assay (120 h) (NSCLC); assay type: cell-based; details: Homo sapiens
Protocol: NCI-H358 cells (ATCC No. CRL-5807) were dispensed into white bottom opaque 96 well plates (Perkin Elmer cat no. 5680) at a density of 2000 cells per well in 100 μL RPMI-1640 ATCC-Formulation (Gibco #A10491)+10% FCS. Cells were incubated overnight at 37° C. in a humidified tissue culture incubator at 5% CO2. Compounds (10 mM stock in DMSO) were added at logarithmic dose series using the HP Digital Dispenser D300 (Tecan), normalizing for added DMSO. For the T0 time point measurement, untreated cells were analyzed at the time of compound addition. Plates were incubated for 120 hours, and cell viability was measured using CellTiter-Glo luminescent cell viability reagent (Promega product code G7570). Viability (stated as percent of control) is defined as relative luminescence units RLU of each well divided by the RLU of cells in DMSO controls. IC50 values were determined from viability measurements by non-linear regression using a four parameter model.

Sequence of KRASG12-dependent Ba/F3 cells (P01116 whole entry G12C): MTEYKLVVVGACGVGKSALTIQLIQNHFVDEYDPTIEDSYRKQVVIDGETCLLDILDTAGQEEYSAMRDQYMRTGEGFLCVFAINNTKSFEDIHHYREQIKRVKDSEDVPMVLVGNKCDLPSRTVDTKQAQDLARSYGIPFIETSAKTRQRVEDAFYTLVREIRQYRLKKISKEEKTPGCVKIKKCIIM
T1 sequence (P01116 1-169 isoform P01116-2 G12C/C51S/C80L/C118S): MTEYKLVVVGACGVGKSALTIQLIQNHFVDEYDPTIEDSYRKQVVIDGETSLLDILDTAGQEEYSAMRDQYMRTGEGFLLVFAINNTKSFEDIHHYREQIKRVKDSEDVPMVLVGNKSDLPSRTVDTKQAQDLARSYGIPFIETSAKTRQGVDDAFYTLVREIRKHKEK

IC50 ([1]; Table 36) [µM] | GI50 [2] [µM] | IC50 [3] [µM] | IC50 ([1]; Table 37) [µM] | IC50 ([1]; Table 38) [µM] | IC50 ([1]; Table 39) [µM] | IC50 (NCI-H358 cells) [µM] | SMILES
0.0026 | 0.015 | 0.0109 | – | – | – | – | C=CC(=O)N1CCN(c2cc(-c3noc([C@@]4(C)CCCc5sc(N)c(C#N)c54)n3)nc(O[C@@H](C)[C@@H]3CCCN3C)n2)C[C@H]1C [Ia-63]
0.003 | 0.0237 | 0.0214 | – | – | – | – | C=CC(=O)N1CCN(c2cc(-c3noc([C@@]4(C)CCCc5sc(N)c(C#N)c54)n3)nc(OC[C@@H]3C[C@@H]4C[C@@H]4N3C)n2)CC1 [Ia-71]
0.007 | 0.0778 | 0.0509 | – | – | – | – | C=CC(=O)N1CCN(c2cc(-c3noc([C@@]4(C)CCCc5sc(N)c(C#N)c54)n3)nc(OC[C@@H]3CC4(CC4)CN3C)n2)CC1 [Ia-72]
0.155 | 0.702 | 0.459 | – | – | – | – | C=CC(=O)N1CCC(Oc2cc(-c3noc(C4(C)CCCc5sc(N)c(C#N)c54)n3)nc(N3CCC4(CCN(C)CC4)CC3)c2)CC1 (stereo not shown) [Ia-78]
0.004 | 0.0077 | 0.0187 | – | – | – | – | C=CC(=O)N1CCC(Oc2cc(-c3noc([C@@]4(C)CCCc5sc(N)c(C#N)c54)n3)nc(N3CCN(C)C[C@@H]3C)c2)CC1 [Ia-79]
0.507 | 0.559 | 1.15 | – | – | – | – | C=CC(=O)N1CCC(Oc2cc(-c3noc([C@]4(C)CCCc5sc(N)c(C#N)c54)n3)nc(N3CCN(C)C[C@@H]3C)c2)CC1 [Ia-80]
0.0016 | 0.0019 | 0.0017 | – | – | – | – | C=CC(=O)N1CC[C@@H](Oc2cc(O[C@@H](C)[C@@H]3CCCN3C)nc(-c3noc([C@@]4(C)CCCc5sc(N)c(C#N)c54)n3)c2)C1 [Ia-81]
0.002 | 0.0173 | 0.0077 | – | – | – | – | C=CC(=O)N1CC[C@H](Oc2cc(O[C@@H](C)[C@@H]3CCCN3C)nc(-c3noc([C@@]4(C)CCCc5sc(N)c(C#N)c54)n3)c2)C1 [Ia-82]
0.002 | 0.0074 | 0.0102 | – | – | – | – | C=CC(=O)N1CCN(c2cc(O[C@@H](C)[C@@H]3CCCN3C)nc(-c3noc([C@@]4(C)CCCc5sc(N)c(C#N)c54)n3)c2)CC12CCC2 [Ia-83]
0.003 | 0.0099 | 0.011 | – | – | – | – | C=CC(=O)N1CCN(c2cc(O[C@@H](C)[C@@H]3CCCN3C)nc(-c3noc([C@@]4(C)CCCc5sc(N)c(C#N)c54)n3)c2)CC12CCCC2 [Ia-84]
0.0016 | 0.0007 | 0.0007 | – | – | – | – | C=CC(=O)N1C[C@H](Oc2cc(O[C@@H](C)[C@@H]3CCCN3C)nc(-c3noc([C@@]4(C)CCCc5sc(N)c(C#N)c54)n3)c2)[C@H]1C [Ia-85]
0.515 | 1.31 | 1.35 | – | – | – | – | C=CC(=O)N1CCN(c2cc(-c3noc([C@@]4(C)CCc5sc(N)c(C#N)c54)n3)nc(N[C@@H](C)[C@@H]3CCCN3C)n2)CC1 [Ia-132]
0.003 | 0.0154 | 0.0056 | – | – | – | – | C=CC(=O)N1CCN(c2cc(-c3noc(C4(C)CCc5sc(N)c(C#N)c54)n3)nc(O[C@@H](C)[C@@H]3CCCN3C)n2)CC1 (stereo partly shown) [Ia-134]
0.002 | 0.0254 | 0.0096 | – | – | – | – | C=CC(=O)N1CCN(c2cc(-c3noc([C@@]4(C)CCCc5sc(N)c(C#N)c54)n3)nc(O[C@@H](C)[C@@H]3CCCN3C3CCN(C)CC3)n2)CC1 [Ia-135]
0.0014 | 0.002 | 0.0009 | – | – | – | – | C=CC(=O)N1CCN(c2cc(O[C@@H](C)[C@@H]3CCCN3C)nc(-c3noc([C@@]4(C)CCCc5sc(N)c(C#N)c54)n3)n2)CC1 [Ia-136]
0.0018 | 0.0005 | 0.0007 | – | – | – | – | C=CC(=O)N1CCN(c2cc(-c3noc([C@@]4(C)CCCc5sc(N)c(C#N)c54)n3)nc(O[C@@H](C)[C@@H]3CC[C@H](C)N3C)n2)CC1 [Ia-137]
0.0015 | 0.0021 | 0.0014 | – | – | – | – | C=CC(=O)N1CCN(c2nc(O[C@@H](C)[C@@H]3CCCN3C)nc(-c3noc([C@@]4(C)CCCc5sc(N)c(C#N)c54)n3)n2)CC1 [Ia-139]
– | 0.271 | 0.0398 | 0.01 | – | – | – | C/C=C/C(=O)N1CCN(c2cc(-c3noc([C@@]4(C)CCCc5sc(N)c(C#N)c54)n3)nc(O[C@@H](C)[C@@H]3CCCN3C)n2)CC1 [Ia-155]
– | 1.52 | 0.238 | 0.016 | – | – | – | COC/C=C/C(=O)N1CCN(c2cc(-c3noc([C@@]4(C)CCCc5sc(N)c(C#N)c54)n3)nc(O[C@@H](C)[C@@H]3CCCN3C)n2)CC1 [Ia-157]
– | 0.467 | 0.103 | 0.004 | – | – | – | C[C@H](Oc1nc(-c2noc([C@@]3(C)CCCc4sc(N)c(C#N)c43)n2)cc(N2CCN(C(=O)/C=C/CN3CCOCC3)CC2)n1)[C@@H]1CCCN1C [Ia-158]
– | 0.0162 | 0.0124 | 0.005 | – | – | – | COC/C=C/C(=O)N1CCC(Oc2cc(O[C@@H](C)[C@@H]3CCCN3C)nc(-c3noc([C@@]4(C)CCCc5sc(N)c(C#N)c54)n3)c2)CC1 [Ia-159]
– | 0.116 | 0.0253 | 0.011 | – | – | – | COC/C=C/C(=O)N1CCN(c2cc(-c3noc([C@@]4(C)CCCc5sc(N)c(C#N)c54)n3)nc(O[C@@H](C)[C@@H]3CCCN3C)n2)CC12CC2 [Ia-160]
– | 0.162 | 0.0265 | 0.021 | – | – | – | COC/C=C\C(=O)N1CCN(c2cc(O[C@@H](C)[C@@H]3CCCN3C)nc(-c3noc([C@@]4(C)CCCc5sc(N)c(C#N)c54)n3)n2)CC12CC2 [Ia-161]
– | 0.431 | 0.0813 | 0.022 | – | – | – | C/C=C/C(=O)N1CCN(c2cc(-c3noc([C@@]4(C)CCCc5sc(N)c(C#N)c54)n3)nc(O[C@@H](C)[C@@H]3CCCN3C)n2)CC12CC2 [Ia-163]
– | 0.0125 | 0.004 | – | 0.004 | – | – | CC#CC(=O)N1CCN(c2cc(O[C@@H](C)[C@@H]3CCCN3C)nc(-c3noc([C@@]4(C)CCCc5sc(N)c(C#N)c54)n3)n2)CC12CC2 [Ia-165]
– | 0.0134 | 0.0042 | – | 0.003 | – | – | CC#CC(=O)N1CCN(c2cc(-c3noc([C@@]4(C)CCCc5sc(N)c(C#N)c54)n3)nc(O[C@@H](C)[C@@H]3CCCN3C)n2)CC12CC2 [Ia-166]
– | 0.189 | 0.0772 | – | 0.015 | – | – | CC#CC(=O)N1CCN(c2cc(-c3noc([C@@]4(C)CCCc5sc(N)c(C#N)c54)n3)nc(O[C@@H](C)[C@@H]3CCCN3C)n2)C2CCCC21 (stereo partly shown) [Ia-167]
– | 7.73 | 1.84 | – | – | 0.04 | – | C[C@H](Oc1nc(-c2noc([C@@]3(C)CCCc4sc(N)c(C#N)c43)n2)cc(N2CCN(C/C=C/C(=O)N(C)C)CC2)n1)[C@@H]1CCCN1C [Ia-169]
– | – | – | – | – | – | 0.021 | C=CC(=O)N1CCN(c2nc(=O)n(-c3c(C)ccnc3C(C)C)c3nc(-c4c(O)cccc4F)c(F)cc23)[C@@H](C)C1 [sotorasib, reference compound]
